The values below are quoted from earlier work in patent publication US8657943B2, “1-hydroxy-2-O-acyl-sn-glycero-3-phosphocholine compounds, preparation process, antifouling composition, process for its preparation, method to prevent fouling, method to turn a surface into an antifouling surface, and, covered surface” (UFRJ, IEAPM, UFF, priority 2010, dated 2014).

The test system of one data set is different cell types. Conditions: very low concentrations.
Another data set has as its system mussels. Conditions: concentrations of up to 100 ng/L in seawater.
Another data set concerns Ostrea edulis. Conditions: 75 days exposure, 0.24 μg/L.

For the substance “1-O-alkyl-2-acetyl-sn-glycero-3-phosphocholine [platelet activating factor]”, in the data set on different cell types, the “concentrations that trigger physiological responses” value is listed as 10^−12 to 10^−9 M.

As to tri-butyl tin [TBT], the “effect on the growth of mussels” value in the data set on mussels is reported as “significant reductions in the growth of mussels”. Besides, in the data set with Ostrea edulis, the larval production entry is “completely inhibited” and the “sex change male to female” value is recorded as “a delay in changing sex male to female was observed”.
